Reference: patent publication US6362226B1, “Modulation of in vivo glutamine and glycine levels in the treatment of autism” (Vanderbilt University, priority 1999, dated 2002)

Tested on: autistic patients
Test: Open-label dextromethorphan treatment of autistic patients B and F with elevated plasma glutamine and/or glycine, rated by treatment-blinded observers
Format: in vivo, human
Description: Autistic patients were screened for elevated plasma levels of glutamine or glycine, or both. Five of 36 patients had elevated levels of either or both amino acids. One patient, “B”, had been diagnosed as having autism […] and 10 months. […] Further, B had elevated levels of glutamine in their cerebrospinal fluid, although their glycine levels were within the normal range. Their routine chemistry lab tests, including their urine organic acid profile, were normal. Patient “F” had persistent elevated glycine levels on multiple amino acid profiles which ranged from 324 to 439 μmol/L, where normal levels are from 120 to 315 μmol/L.
Both patients B and F were treated with dextromethorphan at 5 mg/kg body weight/day in the form of a cough and cold preparation sold under the registered trademark DELSYM® by McNeilLab, Inc. of Spring House, Pa., divided BID.
Example 1 discloses that 5/36 (14%) of children with autism have increased plasma levels of glutamine, glycine or both glutamine and glycine. In Example 1, an autistic patient with elevated glutamine and glycine and an autistic patient with glycine were treated with DM at 5 mg/kg body weight/day. […] The procedures of Example 1, however, were uncontrolled and open-label. In Example 2, treatment of children with autism with PB, SB or combinations of PB, SB and DM is systematically evaluated.

In the case of `COc1ccc2c(c1)[C@]13CCCC[C@@H]1[C@H](C2)N(C)CC3` [dextromethorphan], the “response upon resumption of long-term dextromethorphan treatment” value (patients B and F) is reported as “responded as before and have continued to respond”, the “expressive and receptive language skills, attention span and focus, motor planning and socialization with peers” value (patients B and F, 5 mg/kg body weight/day divided BID as DELSYM, teachers and therapists blinded to treatment) is reported as “significant improvement” and the “behavior after withdrawal of dextromethorphan treatment” value (patients B and F, treatment-blinded observers, all areas previously improved) is reported as “regression in all of these areas of behavior measurement”. The autistic behavior (two autistic patients, DM 5 mg/kg body weight/day, uncontrolled, open-label) was “clinical improvement”.
